Experimental data from ChEMBL document CHEMBL4052604, “Englerins: A Comprehensive Review” (J Nat Prod, 2017).

Tests used:
[1] = test system: A498; experiment: Cytotoxicity against human A498 cells assessed as reduction in cell viability; format: functional, cell-based
[2] = test system: A498; experiment: Antiproliferative activity against human A498 cells after 48 hrs by sulphorhodamine B assay; format: functional, cell-based; details: A498, 48 h

Compound	IC50 [1] [nM]	IC50 [2] [nM]
CC[C@@]12C[C@@H](OC(=O)CO)[C@@](C)(O1)[C@@H]1CC[C@@H](C)[C@H]1[C@@H]2OC(=O)/C=C/c1ccccc1	950	
C[C@@H]1CC[C@@H]2[C@@H]1[C@H](OC(=O)/C=C/c1ccccc1)[C@]1(C)C[C@@H](OC(=O)CO)[C@@]2(C)O1	4600	
CC1(C)C2C[C@H](OC(=O)/C=C/c3ccccc3)C1(C)C[C@H]2OC(=O)CO (stereo not given in full)	35000	
CC(C)[C@@]12C[C@@H](C(=O)OCCO)[C@@](C)(O1)[C@@H]1CC[C@@H](C)[C@H]1[C@@H]2OC(=O)/C=C/c1ccccc1		48
CC(C)[C@@]12C[C@@H](OC(=O)CO)[C@@](C)(O1)[C@@H]1CC[C@@H](C)[C@H]1[C@@H]2OC(=O)c1ccc(Cl)cc1Cl	280	
